Article PMC9034162, “Development of pyrazoline-based derivatives as aminopeptidase N inhibitors to overcome cancer invasion and metastasis” (RSC Advances, 2021)

How the values were obtained:
[1] = target: T1, porcine APN (Sus scrofa, UniProt P15145); experiment: Enzymatic inhibition assay against APN in vitro; format: biochemical; settings: for IC50: soluble APN from porcine kidney microsomes, L-Leu-p-nitroanilide substrate, pH 7.2, 37 °C 30 min, mean ± SD, triplicate
T1 construct: soluble APN from porcine kidney microsomes (Biocol) was used as enzyme; purchased Biocol; host or cells: porcine kidney microsomes (tissue-derived)
T1 sequence (P15145 1-963): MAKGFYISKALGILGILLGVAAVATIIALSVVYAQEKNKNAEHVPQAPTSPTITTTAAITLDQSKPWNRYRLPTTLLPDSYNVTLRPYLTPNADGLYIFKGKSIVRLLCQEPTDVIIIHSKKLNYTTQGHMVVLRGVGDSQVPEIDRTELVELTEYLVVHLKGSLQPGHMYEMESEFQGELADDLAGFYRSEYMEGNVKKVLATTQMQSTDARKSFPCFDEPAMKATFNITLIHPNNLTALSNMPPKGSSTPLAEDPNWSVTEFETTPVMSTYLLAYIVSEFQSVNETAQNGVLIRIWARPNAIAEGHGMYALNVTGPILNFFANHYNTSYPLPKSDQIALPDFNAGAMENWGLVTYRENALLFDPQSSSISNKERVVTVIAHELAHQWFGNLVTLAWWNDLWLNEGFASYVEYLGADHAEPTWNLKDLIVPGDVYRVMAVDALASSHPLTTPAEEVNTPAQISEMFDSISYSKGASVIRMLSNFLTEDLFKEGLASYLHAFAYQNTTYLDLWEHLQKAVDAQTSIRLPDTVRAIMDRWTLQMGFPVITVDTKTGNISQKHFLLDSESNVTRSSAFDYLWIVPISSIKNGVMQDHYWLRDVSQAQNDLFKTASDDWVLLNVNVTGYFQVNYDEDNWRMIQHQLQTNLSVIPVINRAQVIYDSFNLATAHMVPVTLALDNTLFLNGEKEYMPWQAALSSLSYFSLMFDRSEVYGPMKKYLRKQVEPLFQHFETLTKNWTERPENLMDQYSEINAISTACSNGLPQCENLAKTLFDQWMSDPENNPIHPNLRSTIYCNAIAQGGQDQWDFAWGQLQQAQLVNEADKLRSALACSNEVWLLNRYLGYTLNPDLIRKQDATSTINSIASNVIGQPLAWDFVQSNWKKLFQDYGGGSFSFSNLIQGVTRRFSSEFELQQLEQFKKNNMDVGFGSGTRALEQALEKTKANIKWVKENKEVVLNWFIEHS
Procedure: In the enzymatic inhibition assay against APN in vitro, L-Leu-p-nitroanilide was used as substrate and soluble APN from porcine kidney microsomes (Biocol) was used as enzyme. 50 mM PBS with pH 7.2 was used as buffer solution. Briefly, inhibitors (40 μL), PBS (145 μL), substrate (5 μL, 16 mmol L^−1) and APN solution (10 μL, 0.15 IU mL^−1) were added into 96-well plates. The mixture was incubated at 37 °C for 30 min. The optical density resulting from the hydrolysis product p-nitroanilide was measured at 405 nm with a plate reader (Varioskan, Thermo, USA).

[2] = test system: PC-3; experiment: Anti-proliferation assay (MTT); format: cell-based; settings: Homo sapiens, 48 h, mean ± SD, triplicate, read-out: IC50 anti-proliferative, PC-3
Procedure: (§1) The anti-proliferative activities of the selected compounds were evaluated using the MTT method. All the tumor cell lines were cultured in RPMI-1640 medium with 10% FBS at 37 °C in 5% CO2 humidified incubator. Firstly, cells (100 μL) were plated in 96-well plates and allowed to grow for 4 h. Then different concentrations of inhibitors (100 μL) were added. After incubation for 48 h, MTT solution (20 μL per well, 5 mg mL^−1) was added and the mixture was incubated for additional 4 h. Subsequently, the medium were poured off and DMSO (200 μL) was added to dissolve the formed formazan. After shaking for 15 min, the optical density values were measured using a plate reader at 570 nm (Varioskan, Thermo, USA).

[3] = test system: HepG2; experiment: Anti-proliferation assay (MTT); format: cell-based; settings: Homo sapiens, 48 h, mean ± SD, triplicate, read-out: IC50 anti-proliferative, HepG2
Procedure: as §1

[4] = test system: U937; experiment: Anti-proliferation assay (MTT); format: cell-based; settings: Homo sapiens, U-937, 48 h, mean ± SD, triplicate, read-out: IC50 anti-proliferative, U937
Procedure: as §1

[5] = test system: ES-2; experiment: Anti-proliferation assay (MTT); format: cell-based; settings: Homo sapiens, 48 h, mean ± SD, triplicate, read-out: IC50 anti-proliferative, ES-2
Procedure: as §1

[6] = test system: K562; experiment: Anti-proliferation assay (MTT); format: cell-based; settings: Homo sapiens, 48 h, mean ± SD, triplicate, read-out: IC50 anti-proliferative, K562
Procedure: as §1

[7] = test system: PLC/PRF/5; experiment: Anti-proliferation assay (MTT); format: cell-based; settings: Homo sapiens, 48 h, mean ± SD, triplicate, read-out: IC50 anti-proliferative, PLC/PRF/5
Procedure: as §1

[8] = Body weight monitoring in H22 pulmonary metastasis model; format: in vivo; settings: 60 mg kg^−1 d^−1 intraperitoneally for 12 days, Kunming mice, weights every two days
Procedure: (§2) All animal procedures were performed in accordance with the Guidelines for Care and Use of Laboratory Animals of Shandong University and approved by the Animal Ethical and Welfare Committee (AEWC, China). The mice hepatoma H22 cell line was our laboratory-owned and 6 week old male Kunming mice were purchased from Center for New Drugs Evaluation of Shandong University, China. Firstly, H22 cells suspension (0.1 mL, 7.5 × 10^7 mL^−1) was injected via tail vein to establish a mice H22 pulmonary metastasis model. Subsequently, the mice were randomly divided into treatment and control groups. […] The body weights were monitored every two days. Finally, the mice were sacrificed and the lungs were removed and fixed in Bouin's solution. After 24 h, the metastasis nodes on the surface of pulmonary lobes were counted.

[9] = test system: ES-2 cells invasion; experiment: In vitro anti-invasion assay (matrigel transwell); format: cell-based
Procedure: The carbonate membrane coated with matrigel in the upper chamber of transwell insert (BD BioCoat™ Matrigel™ Invasion Chambers) was rehydrated with RPMI-1640 culture medium (500 μL) containing 1% FBS for 2 h. After removing the medium, the upper and lower chambers were added the RPMI-1640 culture medium (100 μL) with 1% FBS containing the tested compounds and the RPMI-1640 culture medium (750 μL) with 10% FBS, respectively. Then, ES-2 cells suspending in the RPMI-1640 culture medium containing 1% FBS (400 μL, 2.5 × 10^5 cells per mL) were added into the upper chambers. The system was placed at 37 °C in 5% CO2 for 8 h. The ES-2 cells could invade the matrigel and migrate from the upper surface of the carbonate membrane into the lower surface of that. ES-2 cells on the upper surface of the carbonate membrane were erased by cotton swabs. Then, ES-2 cells on the lower surface were fixed with methanol, stained with 0.1% crystal violet, of which the photographs were taken under an inverted microscope. The average numbers of ES-2 cells in five random fields (100×) per well were counted. The inhibition rate of ES-2 cells invasion was calculated as follows: (A − B)/A × 100%, A means the number of ES-2 cells in the control group, and B means the number of ES-2 cells in the treated group. The experiments were repeated three times.

[10] = test system: mice H22 hepatoma cells; experiment: In vivo anti-metastatic assay, mice H22 hepatoma cell pulmonary metastasis model; settings: 60 mg kg^−1 d^−1 intraperitoneally for 12 days, Kunming mice, H22 cells via tail vein
Procedure: as §2

Row | Compound | melting point | IC50 [1] | also measured
1 | NC(=O)N1N=C(c2c(F)cccc2F)CC1c1ccccc1OCC(=O)NO (stereo not shown) [2j] | 186.2 to 188.2 °C | 120 ± 10 nM | 
2 | NC(=O)N1N=C(c2ccccc2Cl)CC1c1ccccc1OCC(=O)NO (stereo not shown) [compound 2i] | 172.2 to 174.1 °C | 100 ± 10 nM | 
3 | NC(=O)N1N=C(c2ccc3ccccc3c2)CC1c1ccccc1OCC(=O)NO (stereo not shown) [2n] | 166.2 to 168.2 °C | 2500 ± 100 nM | 
4 | COc1ccc(C2=NN(C(N)=O)C(c3ccccc3OCC(=O)NO)C2)cc1 (stereo not shown) [2f] | 168.4 to 170.2 °C | 12500 ± 800 nM | 
5 | NC(=O)N1N=C(c2ccc(Br)cc2)CC1c1ccccc1OCC(=O)NO (stereo not shown) [2c] | 190.2 to 192.2 °C | 2100 ± 200 nM | 
6 | NC(=O)N1N=C(c2cccc3ccccc23)CC1c1ccccc1OCC(=O)NO (stereo not shown) [2m] | 204.2 to 206.2 °C | 210 ± 40 nM | fold more potent against APN than 2n ([1]; IC50 ratio vs 2n): over 10 fold
7 | NC(=O)N1N=C(c2c(Cl)cccc2Cl)CC1c1ccccc1OCC(=O)NO (stereo not shown) [compound 2k] | 200.2 to 202.2 °C | 64 ± 10 nM | IC50 [2]: 56100 ± 3100 nM; IC50 [3]: 101000 ± 4900 nM; IC50 [4]: 49200 ± 3800 nM; IC50 [5]: 141000 ± 3800 nM; IC50 [6]: 15600 ± 2200 nM; IC50 [7]: 106000 ± 4700 nM; body weight loss [8]: no significant body weight loss; fold more potent against APN than bestatin ([1]; IC50 ratio vs bestatin): over 140 fold; fold more potent against APN than compound 1 ([1]; IC50 ratio vs compound 1): > 2 fold; anti-invasion activity at 10 μM compared with 100 μM of bestatin ([9]; ES-2 cells, 10 μM of 2k vs 100 μM bestatin): comparable, if not better; anti-invasion effect at 100 μM compared with bestatin ([9]; ES-2 cells, both at 100 μM, P < 0.05): significantly better than that of bestatin; inhibition of ES-2 cells invasion ([9]; transwell with matrigel, 8 h, several concentrations): inhibit the ES-2 cells invasion in a concentration dependent manner; in vivo anti-metastasis effect [10]: effectively prevent the pulmonary metastasis
8 | NC(=O)N1N=C(c2ccccc2)CC1c1ccccc1OCC(=O)NO (stereo not shown) [compound 1, reference compound] |  | 150 ± 20 nM | 
9 | Cc1ccccc1C1=NN(C(N)=O)C(c2ccccc2OCC(=O)NO)C1 (stereo not shown) [2g] | 144.5 to 146.2 °C | 110 ± 10 nM | 
10 | NC(=O)N1N=C(c2ccccc2Br)CC1c1ccccc1OCC(=O)NO (stereo not shown) [compound 2a, 3-(2-Bromophenyl)-5-(2-(2-(hydroxyamino)-2-oxoethoxy)phenyl)-4,5-dihydro-1H-pyrazole-1-carboxamide] | 168.4 to 170.2 °C | 150 ± 30 nM | 
11 | CC(C)C[C@H](NC(=O)[C@@H](O)[C@H](N)Cc1ccccc1)C(=O)O [Bestatin, reference compound] |  |  | IC50 [2]: > 500000 nM; IC50 [3]: > 500000 nM; IC50 [4]: > 500000 nM; IC50 [5]: > 500000 nM; IC50 [6]: > 500000 nM; IC50 [7]: > 500000 nM; body weight loss [8]: no significant body weight loss
12 | NC(=O)N1N=C(c2ccccc2F)CC1c1ccccc1OCC(=O)NO (stereo not shown) [2h] | 124.4 to 126.1 °C | 150 ± 10 nM | 
13 | COc1ccccc1C1=NN(C(N)=O)C(c2ccccc2OCC(=O)NO)C1 (stereo not shown) [2d] | 198.4 to 200.2 °C | 270 ± 10 nM | 
14 | COc1cccc(C2=NN(C(N)=O)C(c3ccccc3OCC(=O)NO)C2)c1 (stereo not shown) [2e] | 208.5 to 210.3 °C | 320 ± 30 nM | 
15 | COc1ccccc1C1=NN(C(N)=O)C(c2ccccc2OCC(=O)NN)C1 (stereo not shown) [compound 2o, 5-(2-(2-Hydrazinyl-2-oxoethoxy)phenyl)-3-(2-methoxyphenyl)-4,5-dihydro-1H-pyrazole-1-carboxamide] | 156.6 to 158.2 °C | 30200 ± 1900 nM | 
16 | NC(=O)N1N=C(c2ccc(Cl)cc2Cl)CC1c1ccccc1OCC(=O)NO (stereo not shown) [2l] | 196.3 to 198.2 °C | 420 ± 30 nM | 
17 | NC(=O)N1N=C(c2cccc(Br)c2)CC1c1ccccc1OCC(=O)NO (stereo not shown) [2b] | 164.4 to 166.4 °C | 260 ± 50 nM | 
